According to article PMC3617838 (Journal of Experimental Botany, 2013):

How the values were obtained:
[1] = molecular target: T1, LTP3 (LTP3-GST) (Arabidopsis thaliana, UniProt Q9LLR7); assay: fluorescence titration; type: binding
T1 sequence (Q9LLR7 24-115): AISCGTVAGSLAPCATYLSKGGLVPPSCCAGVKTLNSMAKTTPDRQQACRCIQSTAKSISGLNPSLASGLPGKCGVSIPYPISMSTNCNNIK

[2] = molecular target: T2, MYB96-His (Arabidopsis thaliana) (UniProt Q24JK1); assay: EMSA; conditions: EMSA as in Shi et al. 2012; buffer, salt, pH and temperature not stated
T2 sequence: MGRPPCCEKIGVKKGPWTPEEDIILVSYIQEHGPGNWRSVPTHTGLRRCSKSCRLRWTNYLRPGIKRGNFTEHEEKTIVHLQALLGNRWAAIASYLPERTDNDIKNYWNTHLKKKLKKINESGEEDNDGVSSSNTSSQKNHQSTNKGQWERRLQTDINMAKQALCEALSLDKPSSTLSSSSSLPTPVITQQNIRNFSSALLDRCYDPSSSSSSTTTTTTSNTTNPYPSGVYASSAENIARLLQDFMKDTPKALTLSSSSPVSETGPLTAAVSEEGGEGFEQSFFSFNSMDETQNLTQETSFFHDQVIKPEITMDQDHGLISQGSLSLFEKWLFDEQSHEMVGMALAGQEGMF

Compound	Kd [1]	binding [2]
Cc1ccc(Nc2ccc3cc(S(=O)(=O)O)ccc3c2)cc1 [TNS, 2-p-toluidinonaphthalene-6-sulphonate]	9.8 ± 4.7 µM	–
CCACAGTTAATTAAAAGCAGATGAAAGGTGGTCCAATGGAAAAGGAGAATGTGATTGGGCTAGTTGGGAGAGTTCTGATGTCTAGTGTTGGGTACACGTGTCCGTCAGTTACACA (double strand) [LTP3 promoter XY]	–	binds
